The record followed here is patent US20230165922A1, “APPLICATION OF RADIX GENTIANAE MACROPHYLLAE AND MONOMER COMPOUND THEREOF IN KILLING MITES” (SMILEBIOTECK ZHUHAI LIMITED, priority 2020, published 2023).

The structures appear in SMILES notation.

Assay [1] has as its system D.folliculorum. In words: Preliminary in-vitro screening of monomer compounds for effect on survival time of Demodex mites. Conditions: 20° C., humidity 96%; for Survival time (hours) of D.folliculorum in vitro: 35 µL monomer compound solution in 10% DMSO, observed every 2 hours, mean ± SD. The text has this:
The names and molecular formulas of the monomer compounds are shown in the following table: The monomer compounds were purchased from Chengdu Herbpurify Co., Ltd., and were standard references.
The powders of the monomer compounds shown in Table 2 were separately dissolved in dimethyl sulfoxide (DMSO), and then diluted with sterilized double-distilled water to make the final concentration of DMSO 10%, which could not shorten the survival time of Demodex mites as per a controlled study. The negative control group received DMSO mixed with sterilized water at a final concentration of 10%.
As in Example 1, 35 µL of each solution was added to a glass slide, and the survival of the mites was observed under an optical microscope every 2 hours. During the experiment, the Demodex mites were observed by two skilled operators separately for the activities (bodies, limbs and the like) through the microscope to determine whether they were dead or not. If the two operators gave different results, the survival status was determined independently by a third skilled operator. The in-vitro culture was conducted in a climatic chamber at a temperature of 20° C. and a humidity of 96%. During the observation, the glass slides were transported in a wet box to ensure the high humidity.
In this experiment, statistical analysis was conducted using SPSS22.0 statistical software, normality test was conducted using Shapiro-Wilk test, and homogeneity of variance test was conducted using Bartlett’s test.
Effects of monomer compounds of traditional Chinese medicine on survival time of D.folliculorum The in-vitro culture of the Demodex mites was conducted in an environment at a humidity of 96% and a temperature of 20° C. The survival of the Demodex mites was observed dynamically and the survival time was recorded.

Assay [2] deals with D.folliculorum. In words: In-vitro culture of Demodex mites with traditional Chinese medicine decoctions (survival time). To be noted: 20° C., humidity 96%. Here is the method: The ethical guidelines of “The Declaration of Helsinki” and “Measures for the Ethical Review of Biomedical Research Involving Humans” were strictly followed in this study. Demodex mites from patients diagnosed with ocular Demodex infestation were collected in this study. Subjects who met the inclusion criteria were enrolled after giving an informed conversation and signing an informed consent.
The detection of Demodex mites was performed according to the conventional method of eyelash microscopy (12,20). 3 eyelashes were collected from each eyelid, with a total of 12 eyelashes. […] Demodex mites in all periods were counted and classified according to morphology (specific standard: D.brevis with a head-to-body ratio of 1:1, and D.folliculorum with a head-to-body ratio of 1:3 to 1:4). […]
On the basis of the above detection of Demodex mites, 35 µL of the solutions was separately added to the slides, and the survival of the mites was observed every 2 hours. […] If the two operators gave different results, the survival status was determined independently by a third skilled operator. […]
60 g of dried ready-to-use forms was weighed using an electronic balance, and soaked in water with an amount of 10 times (600 mL) in a marmite overnight. […]

On to `C=C[C@H]1[C@H](O[C@@H]2O[C@H](CO)[C@@H](O)[C@H](O)[C@H]2O)OC=C2C(=O)OCC[C@]21O` [Swertiamarin], for which the “Survival time (hours) of D.folliculorum in vitro” value (from here on “Survival time (hours)”) in the assay on D.folliculorum [1] is 59.68 ± 10.97 h.
Same read-out and setting: then `C=C(C)[C@@H]1CC[C@]2(C)[C@H](CC=C3[C@@H]4[C@@H](C)[C@H](C)CC[C@]4(C)CC[C@]32C)[C@@]1(C)CCC(=O)O` [Roburic acid], with 63.41 ± 12.20 h; and `COC(=O)c1c2c(c3ccccc3c1O)OC(C)(C)C=C2` [Mollugin], with 61.10 ± 25.12 h.
Regarding `CC1=CCC(O)(C(C)C)CC1` (centres unmarked) [T40, terpinen-4-ol], in the assay with D.folliculorum [2] (35 µL solution on slide, decoctions of 60 g medicine made up to 100 mL water, TTO and T4O 10% in sterilized water, observed every 2 hours, mean ± SD), the “Survival time (hours)” value stood at 40.50 ± 13.12 h. In the assay with D.folliculorum [2] (Bonferroni comparison with negative control sterilized water (and TTO, T40 groups)), the “Difference in in-vitro survival time of Demodex mites versus control groups (statistical comparison)” value is listed as “did not show significant differences”.
Consider `C=C[C@H]1[C@H](O[C@@H]2O[C@H](CO)[C@@H](O)[C@H](O)[C@H]2O)OC=C2C(=O)OCC[C@H]21` [Sweroside], for which the “Survival time (hours)” value in the assay on D.folliculorum [1] was determined as 60.79 ± 25.98 h.
Regarding `C[C@@H]1[C@H]2[C@H](O[C@@H]3O[C@H](CO)[C@@H](O)[C@H](O)[C@H]3O)OC=C(C(=O)O)[C@H]2C[C@@H]1O` [Loganic acid], the “Survival time (hours)” value with D.folliculorum [1] amounted to 61.56 ± 22.84 h.
Turning to `COc1cc2ccc(=O)oc2cc1O` [Scopoletin], the “Survival time (hours)” value in the assay on D.folliculorum [1] was 54.67 ± 25.66 h.
For `C=C[C@@H]1C2=CCOC(=O)C2=CO[C@H]1O[C@@H]1O[C@H](CO)[C@@H](O)[C@H](O)[C@H]1O` [Gentiopicroside], the “Survival time (hours)” value in the assay with D.folliculorum [1] and in the assay on D.folliculorum [1] (listed as gentiopicroside) was 37.31 ± 36.06 h in each case. For the same compound, the “Effect on in-vitro survival time of Demodex mites versus 10% DMSO negative control” value in the assay on D.folliculorum [1] (compared with 10% DMSO solution) is reported as “significantly shorter”.
